Reference: paper PMC13114161 (Antibiotics, 2026)
Like-named read-outs stand apart in the source and are kept apart here.

Experiments:
[1] = system: P. aeruginosa CDC AR-0232, AR-0248, AR-0249; type: cell-based, Pseudomonas aeruginosa
Procedure: Frequency-of-resistance studies were carried out as described previously.

Plasma stability = type: in vitro ADME, human
Procedure: Plasma stability was assessed by incubating the compound in plasma at 37 °C and monitoring parent compound disappearance over time by LC-MS/MS. Half-life values were calculated assuming first-order kinetics.

Microsomal stability = type: in vitro ADME, human; conditions: pH 7.4
Procedure: The metabolic stability of TXA11114 was evaluated in liver microsomes from human (HLM), dog (DLM), rat (RLM), and mouse (MLM). Test compound disappearance over time was monitored by LC-MS/MS. Verapamil (HLM and RLM) and imipramine (DLM and MLM) were used as positive controls. […] Aliquots (70 µL) were transferred to 96-well reaction plates and pre-incubated at 37 °C for 5 min. Reactions were initiated by adding 30 µL NADPH (final concentration 1 mM). Control incubations lacking NADPH were included to assess non-enzymatic degradation. Reactions were terminated at 0, 5, 15, 30, and 60 min by the addition of 100 µL ice-cold acetonitrile containing glipizide as an internal standard.

P. aeruginosa ATCC 27853 = assay: Membrane polarization assay DiOC2(3); type: cell-based, Pseudomonas aeruginosa
Procedure: RND efflux pumps require an intact proton motive force across the inner membrane to mediate drug efflux. Accordingly, collapse of the membrane potential could indirectly disable efflux activity and result in apparent antibiotic potentiation. To determine whether TXA11114 dissipates the membrane potential of P. aeruginosa, membrane polarization was assessed using the fluorescent probe 3,3′-diethyloxacarbocyanine iodide (DiOC2(3)). DiOC2(3) accumulates in cells with polarized membranes, undergoing a concentration-dependent shift from green to red fluorescence due to dye stacking; membrane depolarization prevents this shift. […] CCCP and azithromycin were included as positive and negative controls, respectively. […] This discrepancy likely reflects a methodological limitation of the DiOC2(3) assay in Gram-negative bacteria. Specifically, EDTA treatment is required to transiently permeabilize the outer membrane to permit DiOC2(3) access to the cytoplasmic membrane (see Methods). While necessary for probe uptake, EDTA can sensitize cells to secondary perturbations and may exaggerate subtle fluorescence changes at supraphysiological compound concentrations.
P. aeruginosa membrane polarization assays were conducted as described previously using strain ATCC 27853. Briefly, mid-exponential phase (OD600 of 0.5) P. aeruginosa was pelleted by centrifugation at 3000× g for 10 min at room temperature. Cells were then resuspended in 1× PBS, treated with 10 mM EDTA for 5 min and then centrifuged at 300× g for 10 min to remove EDTA. EDTA-treated cells were pelleted and resuspended to an OD600 of 1.0 in assay resuspension buffer. A 6 mM DiOC2(3) stock in DMSO was added to cells for a final concentration of 30 µM. DiOC2(3)-loaded cells were then added to a 96-well black bottom microplate for a final volume of 200 µL. […] After 15 min incubation at 37 °C in dark, DiOC2(3) fluorescence was recorded using the SpectraMax iD5 spectrophotometer (Molecular Devices, San Jose, CA, USA) using 450 nm excitation. Red fluorescence intensity was recorded at 670 nm emission.

CYP3A4 = target: T1, CYP3A4 (Homo sapiens, UniProt P08684); assay: Cytochrome P450 inhibition; type: in vitro ADME; conditions: human liver microsomes; read-out: CYP Inhibition IC50, 3A4
T1 construct: from tissue; host or cells: human liver microsomes
T1 sequence (P08684 whole entry): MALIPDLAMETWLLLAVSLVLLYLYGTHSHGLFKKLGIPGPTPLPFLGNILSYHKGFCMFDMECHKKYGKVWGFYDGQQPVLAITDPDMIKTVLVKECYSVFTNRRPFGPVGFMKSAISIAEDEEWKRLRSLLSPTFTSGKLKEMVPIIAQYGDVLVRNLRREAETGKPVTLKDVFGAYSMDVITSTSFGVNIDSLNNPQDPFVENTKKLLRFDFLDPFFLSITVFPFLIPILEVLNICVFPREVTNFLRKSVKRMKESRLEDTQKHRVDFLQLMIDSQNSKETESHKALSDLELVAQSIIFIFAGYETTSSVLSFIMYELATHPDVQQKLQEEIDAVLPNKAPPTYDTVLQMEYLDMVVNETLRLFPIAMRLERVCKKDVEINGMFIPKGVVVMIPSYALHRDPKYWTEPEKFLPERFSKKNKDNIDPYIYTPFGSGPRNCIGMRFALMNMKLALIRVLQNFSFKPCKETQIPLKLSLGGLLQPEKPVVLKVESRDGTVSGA
Procedure: (§1) Inhibition of CYP1A2, CYP2D6, CYP2C9, CYP2C19, and CYP3A4 by TXA11114 was assessed in human liver microsomes by measuring the inhibition of probe substrate metabolism. Phenacetin, bufuralol, diclofenac, S-mephenytoin, and midazolam were used as probe substrates for CYP1A2, CYP2D6, CYP2C9, CYP2C19, and CYP3A4, respectively. Corresponding metabolites (acetaminophen, OH-bufuralol, 4-OH diclofenac, 4-OH mephenytoin, and 1-OH midazolam) were quantified by LC-MS/MS. Selective inhibitors (fluvoxamine (CYP1A2), quinidine (CYP2D6), sulfaphenazole (CYP2C9), ticlopidine (CYP2C19), and ketoconazole (CYP3A4)) were used as positive controls. Test and control compounds, prepared in DMSO at various concentrations, were spiked into 2× microsomal reaction mixtures, and 50 µL aliquots were transferred to individual wells. Probe substrates (25 µL, 4× concentration) were added to the respective wells and pre-incubated for 5 min at 37 °C. Reactions were initiated by the addition of 25 µL NADPH (4×) and incubated for 5 min (CYP3A4), 10 min (CYP1A2, CYP2D6, CYP2C9), or 20 min (CYP2C19). Reactions were quenched with 100 µL ice-cold acetonitrile containing glipizide as an internal standard. Plates were centrifuged at 4000 rpm for 15 min, and 100 µL supernatants were analyzed by LC-MS/MS in MRM mode. […] Percent inhibition was calculated as 100 − percent activity. IC50 values were determined using GraphPad Prism (version 5.02).

CYP2D6 = target: T2, CYP2D6 (Homo sapiens, UniProt P10635); assay: Cytochrome P450 inhibition; type: in vitro ADME; conditions: human liver microsomes; read-out: CYP Inhibition IC50, 2D6
T2 construct: from tissue; host or cells: human liver microsomes
T2 sequence (P10635 whole entry): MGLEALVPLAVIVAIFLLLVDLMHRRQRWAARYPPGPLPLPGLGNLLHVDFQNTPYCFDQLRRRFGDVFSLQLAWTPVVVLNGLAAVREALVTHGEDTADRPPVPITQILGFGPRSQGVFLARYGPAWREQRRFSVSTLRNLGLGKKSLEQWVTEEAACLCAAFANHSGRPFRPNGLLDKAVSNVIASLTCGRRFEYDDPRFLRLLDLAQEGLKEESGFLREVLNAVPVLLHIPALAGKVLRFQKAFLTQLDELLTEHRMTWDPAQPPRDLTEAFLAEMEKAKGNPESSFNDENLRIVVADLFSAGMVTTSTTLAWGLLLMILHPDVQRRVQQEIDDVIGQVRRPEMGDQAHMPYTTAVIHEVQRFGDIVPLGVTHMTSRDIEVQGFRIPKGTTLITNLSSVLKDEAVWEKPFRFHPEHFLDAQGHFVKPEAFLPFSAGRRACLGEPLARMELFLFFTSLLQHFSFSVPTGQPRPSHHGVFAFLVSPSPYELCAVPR
Procedure: as §1

in vitro = type: cell-based; conditions: human
Procedure: The cytotoxicity of TXA11114 was evaluated in HEK293T and A549 cell lines using the CellTiter-Glo™ assay (Promega, Madison, WI, USA). HEK293T cells (human embryonic kidney cells transformed with sheared adenovirus 5 DNA and expressing SV40 large T antigen) and A549 cells (human alveolar basal epithelial adenocarcinoma cell line; hypotriploid with a modal chromosome number of 66) were obtained from Sai Life Sciences Ltd. (Hyderabad, India). These cell lines are well-characterized and consistent with commonly used reference lines (e.g., A549, ATCC CCL-185).
TXA11114 was tested in a dose–response format with a top concentration of 20 µM using 2-fold serial dilutions in triplicate. Doxorubicin and staurosporine were included as reference controls. Cells (1200 cells/well in 27 µL complete medium) were seeded into 384-well plates and incubated overnight at 37 °C with 5% CO2. The following day, cells were treated with 3 µL of 10× serially diluted compounds. After a 24 h incubation, CellTiter-Glo reagent was added, and plates were gently shaken for 15–20 min at room temperature. Luminescence was measured using an EnVision multimode plate reader (PerkinElmer, Thane, India).

| Structure (SMILES) | Frequency of Resistance ([1]; CDC AR-0232, levofloxacin 4× MIC (32 μg/mL) alone) | Frequency of Resistance ([1]; CDC AR-0248, levofloxacin 4× MIC (64 μg/mL) alone) | Frequency of Resistance ([1]; CDC AR-0249, levofloxacin 4× MIC (256 μg/mL) alone) | Frequency of Resistance [1] | Frequency of Resistance ([1]; CDC AR-0248, levofloxacin 4× MIC (64 μg/mL) + TXA11114 […]) | Frequency of Resistance ([1]; CDC AR-0249, levofloxacin 4× MIC (256 μg/mL) + TXA11114 […]) | half-life (Plasma stability; across four species (human, dog, rat, and mouse), read-out: Plasma stability half-life) [h] | half-life (Plasma stability; human, read-out: Plasma stability t1/2) [h] | half-life at 1 µM (Microsomal stability; human, liver microsomes, read-out: Microsome Stability t1/2) [h] | half-life at 1 µM (Microsomal stability; human and rat liver microsomes, read-out: Microsomal stability half-life) [h] | Concentrations with modest increase in apparent depolarization (P. aeruginosa ATCC 27853) [µg/mL] | Membrane depolarization (P. aeruginosa ATCC 27853; 0.01–20 µM) | IC50 (CYP3A4) [µM] | IC50 (CYP2D6) [µM] | IC50 at 24 h (in vitro) [µM] |
| --- | --- | --- | --- | --- | --- | --- | --- | --- | --- | --- | --- | --- | --- | --- | --- |
| C[C@H]1COc2c(N3CCN(C)CC3)c(F)cc3c(=O)c(C(=O)O)cn1c23 [Levofloxacin, levofloxacin] | 1.68 × 10^−8 | 8.64 × 10^−8 | 2.15 × 10^−8 | – | – | – | – | – | – | – | – | – | – | – | – |
| NCC(F)C[C@@H](N)CNC(=O)c1cc2ccc(-c3ccc(F)cc3)cc2[nH]1 (stereo partly drawn) [TXA11114, N-((2R)-2,5-diamino-4-fluoropentyl)-6-(4-fluorophenyl)-1H-indole-2-carboxamide] | – | – | – | <1.00 × 10^−10 | <1.47 × 10^−10 | <8.77 × 10^−11 | > 2 | > 2 | > 1 | > 1 | > 10 | did not induce significant membrane depolarization | 63 | > 100 | > 20 |
